Results: patent US9260485B2 (priority 2009, dated 2016)
Where two headings read alike, the source gives them in different places. Square brackets hold non-standard residues; d marks the D form. Peptide text beside a SMILES is read from it. ξ: configuration not given here. Hica(2S) = CC(C)C[C@H](O)C(=O)O; ξLac(3-iPr) = CC(C)CC(O)C(=O)O; NMeL = CN[C@@H](CC(C)C)C(=O)O

What was measured:
[1] = system: HCT15/CL02 cell line (doxorubicin-selected from HCT15); test: In vitro cytotoxicity, SRB method; format: cell-based, Human
Experimental: (§1) Known cyclic hexadepsipeptides (beauvericin, enniatin H, I, and MK1688) and the compounds of Chemical Formulas 1 and 2 were evaluated for in vitro cytotoxicity against various non-multidrug-resistant human cancer cell lines and multidrug-resistant cancer cell lines using the SRB method.
(§2) Human non-small-cell lung cancer cell line (A549) ovarian cancer cell line (SK-OV-3), skin cancer cell line (SK-MEL-2), and uterine sarcoma cell line MES-SA and its multi-drug resistant subline (MES-SA/DX5) were purchased from the American Type Culture Collection (USA). Colorectal carcinoma cancer cell line (HCT-15) was provided by the National Cancer Institute (NCI). HCT15/CL02 cell lines were established from HCT15 cells by continuous and stepwise exposure of the cells to doxorubicin in the Korea Research Institute of Chemical Technology (Korea).

[2] = system: SK-MEL-2 skin cancer cell line; test: In vitro cytotoxicity, SRB method; format: cell-based, Human
Experimental: as §1, §2

[3] = system: MES-SA/DX5 multi-drug resistant subline; test: In vitro cytotoxicity, SRB method; format: cell-based, Human
Experimental: as §1, §2

[4] = system: A549 non-small-cell lung cancer cell line; test: In vitro cytotoxicity, SRB method; format: cell-based, Human
Experimental: as §1, §2

[5] = system: SK-OV-3 ovarian cancer cell line; test: In vitro cytotoxicity, SRB method; format: cell-based, Human
Experimental: as §1, §2

[6] = system: HCT15 colorectal carcinoma cancer cell line; test: In vitro cytotoxicity, SRB method; format: cell-based, Human
Experimental: as §1, §2

[7] = system: MES-SA uterine sarcoma cell line; test: In vitro cytotoxicity, SRB method; format: cell-based, Human; conditions: read-out: EC50 (concentration inhibiting cell growth in vitro by 50%)
Experimental: as §1, §2

[8] = system: HCT-116 colon carcinoma; conditions: cited from earlier work
[9] = system: Mucor rouxii; test: Anti-fungal activity, paper disc on mycelia on PDA; format: cell-based
Experimental: (§3) Inhibitory activity was performed against four fungus strains (Mucor rouxii, Penicillium citrinum, Fusarium oxysporum, and Aspergillus oryzae).
(§4) Drops of 1 and 10 mM solutions of compounds of Chemical Formulas 1 and 2 in methanol were loaded onto sterile paper discs (8 mm diameter) and the methanol solvent was evaporated under a hood. The paper discs were placed on fungus mycelia grown on potato dextrose agar. After incubation at 25° C. for 48 hr, clear zones around the discs were observed and their diameters were measured. A filter treated with pure methanol was used as a negative control.

[10] = system: Penicillium citrinum; test: Anti-fungal activity, paper disc on mycelia on PDA; format: cell-based; conditions: 1 mM; 25° C., 48 hr
Experimental: as §3, §4

[11] = system: Aspergillus oryzae; test: Anti-fungal activity, paper disc on mycelia on PDA; format: cell-based; conditions: 1 mM; 25° C., 48 hr
Experimental: as §3, §4

[12] = system: Fusarium oxysporum; test: Anti-fungal activity, paper disc on mycelia on PDA; format: cell-based
Experimental: as §3, §4

[13] = system: Escherichia coli ATCC 8739; test: Anti-bacterial activity, paper disc clear zone; format: cell-based; conditions: 0.1, 0.5, 1 and 2 mM on paper disc; 37° C., 24 hr
Experimental: (§5) Assays for antibacterial activity were performed with 3 Gram-positive (Listeria monocytogenes ATCC 14028, Staphylococcus aureus ATCC 35556 and Bacillus cereus ATCC 13061) and 3 Gram-negative bacteria (Escherichia coli ATCC 8739, Pseudomonas aeruginosa ATCC 9026 and Salmonella typhimurium ATCC 14028). Each of the compounds of Chemical Formulas 1 and 2 was dissolved in different concentrations (0.1, 0.5, 1, and 2 mM) in dimethyl sulfoxide (DMSO). The solutions were applied to a sterile paper disc (5 mm diameter), followed by evaporating the DMSO solvent. Bacteria was inoculated at a density of 1×10^7 CFU/ml on Tryptic soy agar (TSA) and then, the paper disc was placed on the bacteria-inoculated agars. After incubation at 37° C. for 24 hr, the clear zone around each disc was observed and its diameter was measured.

[14] = system: Salmonella typhimurium ATCC 14028; test: Anti-bacterial activity, paper disc clear zone; format: cell-based; conditions: 0.1, 0.5, 1 and 2 mM on paper disc; 37° C., 24 hr
Experimental: as §5

[15] = system: Bacillus cereus ATCC 13061; test: Anti-bacterial activity, paper disc clear zone; format: cell-based; conditions: 0.1, 0.5, 1 and 2 mM on paper disc; 37° C., 24 hr
Experimental: as §5

[16] = system: Pseudomonas aeruginosa ATCC 9026; test: Anti-bacterial activity, paper disc clear zone; format: cell-based; conditions: 0.1, 0.5, 1 and 2 mM on paper disc; 37° C., 24 hr
Experimental: as §5

[17] = system: Listeria monocytogenes ATCC 14028; test: Anti-bacterial activity, paper disc clear zone; format: cell-based; conditions: 0.1, 0.5, 1 and 2 mM on paper disc; 37° C., 24 hr
Experimental: as §5

[18] = system: Staphylococcus aureus ATCC 35556; test: Anti-bacterial activity, paper disc clear zone; format: cell-based; conditions: 0.1, 0.5, 1 and 2 mM on paper disc; 37° C., 24 hr
Experimental: as §5

[19] = system: MDR cell lines (MES-SA/DX5 and HCT15/CL02); test: Multidrug resistance-reversing activity, summary in words; format: cell-based, Human
Experimental: The cyclic pentadepsipeptides of Chemical Formulas 1 and 2 were analyzed for MDR-reversing activity by comparing inhibitory activities against multidrug-resistant cancer cell lines (MES-SA/DX5 and HCT15/CL02) with those against non-multidrug-resistant cancer cell lines (MES-SA and HCT15). In this regard, the effects of the cyclic pentadepsipeptides of Chemical Formulas 1 and 2 on paclitaxel's cytotoxicity against MDR tumor cells were measured (Table 6). […].
Therefore, the N-methyl group in the cyclic pentadepsipeptide may be a factor crucial for the expression of the MDR reversal activity. […]

[20] = read-out: EC50 (concentration inhibiting cell growth in vitro by 50%), HCT15/CL02
[21] = read-out: EC50 (concentration inhibiting cell growth in vitro by 50%), SK-MEL-2
[22] = read-out: EC50 (concentration inhibiting cell growth in vitro by 50%), MES-SA/DX5
[23] = read-out: EC50 (concentration inhibiting cell growth in vitro by 50%), A549
[24] = read-out: EC50 (concentration inhibiting cell growth in vitro by 50%), SK-OV-3
[25] = read-out: EC50 (concentration inhibiting cell growth in vitro by 50%), HCT15
[26] = Homo sapiens, SK-MEL-2, read-out: EC50 (concentration inhibiting cell growth in vitro by 50%)
[27] = Homo sapiens, MES-SA/Dx5, read-out: EC50 (concentration inhibiting cell growth in vitro by 50%)
[28] = Homo sapiens, A549, read-out: EC50 (concentration inhibiting cell growth in vitro by 50%)
[29] = Homo sapiens, SK-OV-3, read-out: EC50 (concentration inhibiting cell growth in vitro by 50%)
[30] = Homo sapiens, HCT-15, read-out: EC50 (concentration inhibiting cell growth in vitro by 50%)

Structure (SMILES) | EC50 [1, 20] [µM] | EC50 [2, 21] [µM] | EC50 [3, 22] [µM] | EC50 [4, 23] [µM] | EC50 [5, 24] [µM] | EC50 [6, 25] [µM] | EC50 [7] [µM] | EC50 [2, 26] [µM] | EC50 [3, 27] [µM] | EC50 [4, 28] [µM] | EC50 [5, 29] [µM] | EC50 ([7]; Homo sapiens) [µM] | also measured
CCC(C)C[C@H]1OC(=O)[C@H](C(C)C)N(C)C(=O)[C@@H](CC(C)C)OC(=O)[C@H](C(C)C)N(C)C(=O)[C@@H](C(C)C)OC(=O)[C@H](C(C)C)N(C)C1=O (stereo partly drawn) [EN MK1688, Enniatin MK1688] | 16.4 ± 0.84 | 0.63 ± 0.01 | 13.6 ± 0.79 | 0.45 ± 0.04 | 0.46 ± 0.03 | 14 ± 0.54 | 13.6 ± 1.05 |  |  |  |  |  | 
COc1cccc2c1C(=O)c1c(O)c3c(c(O)c1C2=O)C[C@@](O)(C(=O)CO)C[C@@H]3O[C@H]1C[C@H](N)[C@H](O)[C@H](C)O1 [Doxorubicin, doxorubicin] |  |  |  |  |  |  |  | 0.04 ± 0.01 | 1.03 ± 0.31 | 0.03 ± 0.01 | 0.06 ± 0.01 | 0.01 ± 0.0001 | EC50 ([1]; Homo sapiens, HCT-15, read-out: EC50 (concentration inhibiting cell growth in vitro by 50%), HCT15/CL02): 4.48 ± 2.15 µM; EC50 ([6]; Homo sapiens, HCT-15, read-out: EC50 (concentration inhibiting cell growth in vitro by 50%), HCT15): 0.01 ± 0.001 µM
CC(C)C[C@@H]1NC(=O)[C@H](C(C)C)NC(=O)[C@H](CC(C)C)OC(=O)[C@H](CC(C)C)NC(=O)[C@H](Cc2ccccc2)NC1=O [sansalvamide] (cyclo(FL[Hica(2S)]VL)) |  |  |  |  |  |  |  |  |  |  |  |  | in vitro IC50 [8]: 9.8 µg/mL
CC(C)CC1OC(=O)[C@H](Cc2ccccc2)NC(=O)[C@H](CC(C)C)NC(=O)[C@H](C(C)C)NC(=O)[C@H](CC(C)C)N(C)C1=O (stereo partly drawn) [Com. 2, neo-Nmethylsansalvamide] (cyclo(F[ξLac(3-iPr)][NMeL]VL)) |  |  |  |  |  |  |  | 10 ± 0.53 | 11.4 ± 0.3 | 10.7 ± 0.15 | 11.2 ± 1.23 | 14 ± 0.74 | Antifungal test, overall result [9]: inhibitory against Mucor rouxii, and Fusarium oxysporum, weakly; Inhibitory activity on mycelial growth ([9]; 1 mM, 25° C., 48 hr): No inhibitory activities were detected; Clear zone ([9]; 10 mM, 25° C., 48 hr): no clear zones were observed; Hyphal growth near the paper disc ([9]; 10 mM, 25° C., 48 hr): hyphal growth of Mucor rouxii was reduced; Inhibitory activity on mycelial growth [10]: No inhibitory activities were detected; Inhibitory activity on mycelial growth [11]: No inhibitory activities were detected; Antifungal test, overall result [12]: inhibitory against Mucor rouxii, and Fusarium oxysporum, weakly; Inhibitory activity on mycelial growth ([12]; 1 mM, 25° C., 48 hr): No inhibitory activities were detected; Clear zone / inhibitory effect on mycelium ([12]; 10 mM, 25° C., 48 hr): exhibited an inhibitory effect at 10 mM, weakly; Inhibitory activity (clear zone around disc) [13]: Neither the compound of Chemical Formula 1 nor Chemical Formula 2 showed inhibitory activity; Inhibitory activity (clear zone around disc) [14]: Neither the compound of Chemical Formula 1 nor Chemical Formula 2 showed inhibitory activity; Inhibitory activity (clear zone around disc) [15]: Neither the compound of Chemical Formula 1 nor Chemical Formula 2 showed inhibitory activity; Inhibitory activity (clear zone around disc) [16]: Neither the compound of Chemical Formula 1 nor Chemical Formula 2 showed inhibitory activity; Inhibitory activity (clear zone around disc) [17]: Neither the compound of Chemical Formula 1 nor Chemical Formula 2 showed inhibitory activity; Inhibitory activity (clear zone around disc) [18]: Neither the compound of Chemical Formula 1 nor Chemical Formula 2 showed inhibitory activity; EC50 [1, 30]: 13.5 ± 1.19 µM; EC50 [6, 30]: 12.5 ± 0.71 µM; Effect on the cytotoxicity of paclitaxel against MDR cell lines [19]: remarkably enhanced the cytotoxicity of paclitaxel
CC[C@H](C)[C@H]1OC(=O)[C@H](C(C)C)N(C)C(=O)[C@@H](C(C)C)OC(=O)[C@H](C(C)C)N(C)C(=O)[C@@H]([C@@H](C)CC)OC(=O)[C@H](C(C)C)N(C)C1=O [EN I, enniatin I] | 5.88 ± 0.21 | 0.53 ± 0.06 | 4.9 ± 0.27 | 0.5 ± 0.04 | 0.49 ± 0.03 | 5.56 ± 0.22 | 3.94 ± 0.03 |  |  |  |  |  | 
